Consider 21 compounds from patent US20230391714A1, “INHIBITORS OF THE INTERACTION BETWEEN TRIP8B AND HCN CHANNELS AND USES THEREOF FOR TREATING NEUROLOGICAL DISEASES AND DISORDERS” (Northwestern University, priority 2022, published 2023).

Like-named read-outs stand apart in the source and are kept apart here.

Data set [1] in a line: Thermodynamic solubility in PBS. It counts as physicochemical. The conditions noted are these: PBS at pH 7.4, room temperature, stirring for 16 hours; for solubility thermodynamic at 16 h: aqueous buffer, thermodynamic from solid. An excerpt: (§1) Solubility and Mouse Microsomal Stability. […] In order to improve the aqueous solubility to support additional biochemical assays we made and characterized several salt forms. The formic acid (FA) salt was recovered after reverse-phase preparative HPLC while using formic acid as a modifier. […] On stirring the free amine in 4M HCl in dioxane, the compound was converted to the HCl salt as a white solid (Scheme 1). […] As a result, the HCl-salt of NUCC-0200590 was used for biophysical assays. The inhibitor was also screened for in vitro stability towards mouse liver microsomes to evaluate its potential metabolism and suitability for future in vivo experiments. The microsomal stability was measured after a 60-minute incubation at 37° C. with mouse liver microsomes. The compound was almost completely consumed by mouse liver microsomes after a 60-minute incubation as only 3.7% of the parent compound remained.

Data set [2] is described as follows: DMSO needed in PBS to see proton signals in 1H-NMR (aqueous solubility). It counts as physicochemical. The conditions noted are these: PBS (pH 7.4).
Excerpt: as §1

In another data set the target is TRIP8b-HCN1c40 (Homo sapiens (Human), UniProt Q8IYB4). Briefly: TRIP8b-HCN1c40 AlphaScreen assay. It counts as binding. The gist of the method: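 GST-tagged HCN1c40 (C-terminal 40 residues, 20 nM) was incubated 3 h with 200 nM His-tagged TRIP8b(241-602) and varying compound concentrations. Anti-GST acceptor beads, then nickel chelate donor beads, were added for 1.5 h each before the AlphaScreen signal was read.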
(Alpha assays give light when donor and acceptor beads are brought close together.)

Another data set has as its system HEK293T cells. Briefly: Cell viability assay (alamar Blue). It counts as cell-based. The conditions noted are these: 0-50 μM, 24 hours. As for the experimental part: Cell Viability Assays. HEK293T Cells (ATCC, Manassas, Virginia) were maintained as previously described (Lyman et al., 2017b). These cells were plated at 30-50% confluence and incubated for 24 hours with the concentration of NUCC-0200590 specified in the main text. The cells were then incubated with alamar Blue assay reagent per the Manufacturer's instructions (ThermoFisher, Rockford, IL) prior to reading the plates on a plate reader.
On the technique in general: The colour change of resazurin is a common sign of viable cells or microbes.

The nature of data set [3]: Mouse liver microsomal stability. In kind it is in vitro ADME. To be noted: 60-minute incubation at 37° C. with mouse liver microsomes.
Excerpt: as §1

The subject of data set [4] is HCN channels in CA1 pyramidal neurons. In words: Slice electrophysiology in CA1 pyramidal neurons. In kind it is cell-based, mice. To be noted: 15 μM. The procedure:
Slice Electrophysiology. Whole cell recordings from CA1 pyramidal neurons were performed using an electrophysiology rig described previously (Zhou et al., 2013; 2015). 300 micron sagittal sections were made from male and female mice with 5 μM CGP52432, 2 μM SR-95531, and 10 μM MK-801 to block GABAB, GABAA, and NMDAR. ACSF was composed of 125 mM NaCl, 2.5 mM KCl, 25 mM NaHCO3, 1.25 mM Na2PO4, 1 mM MgCl2, 2 mM CaCl2), and 25 mM glucose while the internal solution was 115 mM K-gluconate, 20 mM KCl, 10 mM Na2Phosphocreatinine, 2 mM MgATP, and 0.3 mM NaGTP. NUCC-0200590 was incubated in the slice chamber in a subset of experiments as described in the text. Current clamp recordings were performed at a holding potential of −70 mV.

In another data set the target is TRIP8b and HCN1 (Homo sapiens (Human), UniProt Q8IYB4). Briefly: NanoBiT live cell protein-protein interaction assay. To be noted: HEK293T cells, 30 min incubation. In kind it is cell-based. The procedure: NanoBiT live cell protein-protein interaction assay. HEK293T cells (obtained freshly from ATCC) were plated in DMEM (Thermo Fisher, #11965-092) with 10% FBS (Thermo Fisher, #16000-044) and Pen/Strep (Thermo Fisher #15140-122) at 1 million cells per well in 6-well tissue culture treated plates. The next day, cells were co-transfected using Lipofectamine 3000 with plasmids encoding the small Nanoluciferase fragment (SmBiT) fused to the N-terminus of full-length HCN1 (SmBiT-HCN1), and the large Nanoluciferase fragment (LgBiT) fused to the N-terminus of TRIP8b(1a-4) (LgBiT-TRIP8b). The plasmids were constructed by cloning into backbone vectors from the Promega NanoBiT MCS cloning kit #N2014. As a control for specific inhibition, other cells were co-transfected with SmBiT-PRKACA and LgBiT-PRKAR2A positive control plasmids from the kit. 24 hours post-transfection, the cells were trypsinized with TrypLE (Thermo Fisher, #12604-013), washed and suspended in phenol red-free Opti-MEM I (Thermo Fisher, #11058-021), and 25,000 cells per well were plated in white 384-well tissue culture-treated plates (Greiner #781080). […] Luminescence was generated by adding Nano-Glo live cell substrate (Promega, #N2011) and incubating for 30 minutes at 37° C. prior to detecting on a luminescent reader (Biotek Neo2).

Where [5] appears, read: activity ranges, read-out: TRIP8b-HCN1c40 Alphascreen IC50 activity.
[6] abbreviates: read-out: TRIP8b-HCN1c40 Alphascreen IC50.

Chain of TRIP8b-HCN1c40 (Q8IYB4 265-626): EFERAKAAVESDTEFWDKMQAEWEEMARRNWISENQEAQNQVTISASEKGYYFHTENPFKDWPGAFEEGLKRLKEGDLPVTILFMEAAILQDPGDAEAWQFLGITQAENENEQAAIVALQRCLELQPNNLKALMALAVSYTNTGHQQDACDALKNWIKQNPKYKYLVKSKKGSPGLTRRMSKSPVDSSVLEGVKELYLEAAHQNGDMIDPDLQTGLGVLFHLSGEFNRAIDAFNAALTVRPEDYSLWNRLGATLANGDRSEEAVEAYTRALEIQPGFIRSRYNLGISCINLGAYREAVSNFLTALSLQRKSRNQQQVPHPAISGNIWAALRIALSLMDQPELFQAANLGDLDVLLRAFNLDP
Chain of TRIP8b and HCN1 (Q8IYB4 other isoform, or with tags, fused parts or gaps, species assumed): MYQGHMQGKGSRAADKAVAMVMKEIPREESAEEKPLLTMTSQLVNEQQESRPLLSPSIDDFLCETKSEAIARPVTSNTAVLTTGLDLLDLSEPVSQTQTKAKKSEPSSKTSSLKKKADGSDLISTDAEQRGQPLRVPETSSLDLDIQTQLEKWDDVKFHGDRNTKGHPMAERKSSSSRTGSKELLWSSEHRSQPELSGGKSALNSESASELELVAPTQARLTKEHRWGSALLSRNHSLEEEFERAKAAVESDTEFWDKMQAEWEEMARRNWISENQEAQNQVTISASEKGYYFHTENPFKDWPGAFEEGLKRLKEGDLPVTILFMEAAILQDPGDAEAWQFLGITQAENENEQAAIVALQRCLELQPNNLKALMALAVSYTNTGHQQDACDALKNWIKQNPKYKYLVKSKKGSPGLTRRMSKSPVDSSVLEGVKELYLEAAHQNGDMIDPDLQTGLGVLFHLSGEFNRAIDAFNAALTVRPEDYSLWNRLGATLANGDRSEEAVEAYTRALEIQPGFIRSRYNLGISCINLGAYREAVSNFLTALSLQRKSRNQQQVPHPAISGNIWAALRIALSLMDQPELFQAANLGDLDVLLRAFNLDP

For `CN1CCN(Cc2cc(-c3ccc(F)cc3)ccc2OCC(=O)NCc2ccc(Cl)cc2)CC1.O=CO` [NUCC-0200590 FA salt, N-(4-chlorobenzyl)-2-((4′-fluoro-3-((4-methylpiperazin-1-yl)methyl)-[1,1′-biphenyl]-4-yl)oxy)acetamide formate], the solubility (thermodynamic) – broadly, solubility found after equilibrating the solid with the medium – at 16 h in data set [1] was 45 µM. Besides, in data set [2], the “DMSO in PBS required to see proton signals in 1H-NMR” value is given as 15%.
As for `CN1CCN(Cc2cc(-c3ccc(F)cc3)ccc2OCC(=O)NCc2ccc(Cl)cc2)CC1` [NUCC-0200590, N-(4-chlorobenzyl)-2-((4′-fluoro-3-((4-methylpiperazin-1-yl)methyl)-[1,1′-biphenyl]-4-yl)oxy)acetamide], the thermodynamic solubility entry in data set [1] is listed as “completely insoluble”. Also, the IC50 (usually the midpoint of a concentration-inhibition curve) at TRIP8b-HCN1c40 (setting [5]) was 5 to 10 µM; on TRIP8b-HCN1c40 (most potent hit compound of in silico screen, read-out: IC50 value in the AlphaScreen assay) it was 19.9 ± 0.9 µM; at TRIP8b-HCN1c40 (setting [6]) it was 5.4 µM. Moreover, in the data set on HEK293T cells, the “viability as percentage of 0 μM control” value was “main effect of concentration”. In addition, the parent compound remained in data set [3] was 3.7%. Also, the values for the sag ratio in data set [4] (Trip8b+/+ mice) and in data set [4] (Trip8b−/− mice) were 1.14±0.01 and 1.05±0.02, respectively.
`CN1CCN(Cc2cc(-c3ccc(F)cc3)ccc2OCC(=O)NCc2ccc(Cl)cc2)CC1.Cl` [NUCC-0200590 HCl salt, N-(4-chlorobenzyl)-2-((4′-fluoro-3-((4-methylpiperazin-1-yl)methyl)-[1,1′-biphenyl]-4-yl)oxy)acetamide hydrochloride] came in with a thermodynamic solubility at 16 h in data set [1] of 252 µM. Moreover, on TRIP8b and HCN1, the “disruption of TRIP8b-HCN1 interaction (NanoBiT luminescence)” value was “disrupts the interaction between fragments of TRIP8b and HCN1 in live cells”.
On to `CN1CCN(Cc2cc(-c3ccc(Cl)c(Cl)c3)ccc2OCC(=O)N2Cc3ccc(Cl)cc3C2)CC1` [NUCC-0201993], for which the half-maximal inhibitory concentration (IC50) at TRIP8b-HCN1c40 (setting [5]) is 1 to 2 µM; at TRIP8b-HCN1c40 (setting [6]) it was 1.9 µM.
Take `Cc1ccc([C@@H](C)NC(=O)C(C)Oc2ccc(-c3ccc(Cl)c(Cl)c3)cc2CN2CCN(C)CC2)cc1` (some centres unmarked) [NUCC-0202047]: the IC50 at TRIP8b-HCN1c40 (setting [5]) was less than 1 µM; at TRIP8b-HCN1c40 (setting [6]), less than 0.74 µM.
Consider `CC(Oc1ccc(-c2ccc(C(F)(F)F)cc2)cc1CN1CCN(C)CC1)C(=O)NCc1ccc(Cl)cc1` (centres unmarked) [NUCC-0202029], for which the IC50 at TRIP8b-HCN1c40 (setting [5]) was 2 to 5 µM; on TRIP8b-HCN1c40 (setting [6]), 4.5 µM.
Taken in the same sequence, the figures for `CC(Oc1ccc(-c2ccc(F)c(C(F)(F)F)c2)cc1CN1CCN(C)CC1)C(=O)NCc1ccc(Cl)cc1` (centres unmarked) [NUCC-0202033] were less than 1 µM and 0.99 µM.
Taken in the same sequence, the figures for `CN1CCN(Cc2cc(-c3ccc(Cl)c(Cl)c3)ccc2OCC(=O)NCCc2ccc(C(F)(F)F)cc2)CC1` [NUCC-0201995] were less than 1 µM and less than 0.74 µM.
Taken in the same sequence, the figures for `COc1ccc(CNC(=O)COc2ccc(-c3ccc(C)cc3)cc2CN2CCCN(C)CC2)c(OC)c1` [NUCC-0201599] were 10 to 20 µM and 15 µM.
As to `CN1CCN(Cc2cc(-c3ccc(Cl)c(Cl)c3)ccc2OCC(=O)N2CCc3cc(Cl)c(Cl)cc32)CC1` [NUCC-0201991], the IC50 is less than 1 µM at TRIP8b-HCN1c40 (setting [5]) and less than 0.74 µM at TRIP8b-HCN1c40 (setting [6]).
The matching figures for `CNC(=O)c1ccc(NC(=O)COc2ccc(-c3cccc(C)c3)cc2CN2CC[C@H](N)C2)cc1` [NUCC-0201623]: 20 to 40 µM and 22 µM.
The matching figures for `CN1CCN(Cc2cc(-c3ccc(Cl)c(Cl)c3)ccc2OCC(=O)NCCc2ccc(C#N)cc2)CC1` [NUCC-0201994]: 2 to 5 µM and 3.4 µM.
The matching figures for `Cc1ccc(-c2ccc(OCC(=O)Nc3ccc(Cl)cc3)c(CN3CCC(N(C)C)CC3)c2)cc1` [NUCC-0201608]: 5 to 10 µM and 7 µM.
With `Cc1ccc([C@@H](C)NC(=O)C(C)Oc2ccc(-c3cc(Cl)cc(Cl)c3)cc2CN2CCN(C)CC2)cc1` (some centres unmarked) [NUCC-0202049], the half-maximal inhibitory concentration (IC50) on TRIP8b-HCN1c40 (setting [5]) was less than 1 µM; on TRIP8b-HCN1c40 (setting [6]), less than 0.74 µM.
Taken in the same sequence, the figures for `CN1CCN(Cc2cc(-c3ccc(F)c(C(F)(F)F)c3)ccc2OCC(=O)NCc2ccc(Cl)cc2)CC1` [NUCC-0201709] were 2 to 5 µM and 2.8 µM.
For the compound `CN1CCN(Cc2cc(-c3ccc(Cl)c(Cl)c3)ccc2OCC(=O)NCc2ccc(Cl)cc2)CC1` [NUCC-0201973], the IC50 was 1 to 2 µM on TRIP8b-HCN1c40 (setting [5]) and 1.3 µM at TRIP8b-HCN1c40 (setting [6]).
The matching figures for `Cc1ccccc1-c1ccc(OCC(=O)NCc2ccc(Cl)cc2)c(CN2CCNCC2)c1` [NUCC-0201617]: 5 to 10 µM and 7.8 µM.
For the compound `Cc1ccc(-c2ccc(OCC(=O)NCc3cnc[nH]3)c(CN3CCC(N(C)C)CC3)c2)cc1` [NUCC-0201612], the IC50 on TRIP8b-HCN1c40 (setting [6]) was more than 40 µM.
As to `CN1CCN(Cc2cc(-c3ccc(N)cc3)ccc2OCC(=O)Nc2ccc(Cl)c(Cl)c2)CC1` [NUCC-0202020], the results for the IC50 on TRIP8b-HCN1c40 (setting [5]) and on TRIP8b-HCN1c40 (setting [6]) were 1 to 2 µM and 1.5 µM, respectively.
Taken in the same sequence, the figures for `Cc1cccc(-c2ccc(OCC(=O)Nc3cccc(S(C)(=O)=O)c3)c(CN3CC[C@H](N)C3)c2)c1` [NUCC-0201622] were 10 to 20 µM and 19 µM.
In the case of `C=Cc1ccc(-c2ccc(OCC(=O)NCc3ccc(Cl)cc3)c(CN3CCN(C)CC3)c2)cc1` [NUCC-0201713], the IC50 at TRIP8b-HCN1c40 (setting [5]) was 2 to 5 µM; at TRIP8b-HCN1c40 (setting [6]) it was 4.7 µM.
